Measured values as given in the supplement of paper PMC10307832.

Columns and labels:
Experiment in all cases: relative viability (nuclei count vs DMSO), 5 days (fraction); higher = more cells survive
[1] = compound: Cc1cc([C@@H](C)Nc2ccccc2C(=O)O)c2nc(N3CCOCC3)cc(=O)n2c1 [AZD6482] + Nc1nc2[nH]cc(CCc3ccc(C(=O)N[C@@H](CCC(=O)O)C(=O)O)cc3)c2c(=O)[nH]1 [Pemetrexed] (partner 0.2 µM)
Outline: (§1)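 Five library-drug doses in √10 steps were combined with a fixed anchor-drug dose, or a single drug was given alone, by pin tool to lung cancer cell lines in 1536-well plates the day after seeding. Nuclei were stained and counted after 5 days. Relative viability is the nuclei count in treated wells over that in vehicle wells, taken as the median of duplicate plates.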

[2] = compound: COc1cc2nc(N3CCCN(C)CC3)nc(NC3CCN(Cc4ccccc4)CC3)c2cc1OC + CC(=O)c1c(C)c2cnc(Nc3ccc(N4CCNCC4)cn3)nc2n(C2CCCC2)c1=O [Palbociclib] (partner 0.5 µM)
Outline: as §1

[3] = compound: Cc1cc([C@@H](C)Nc2ccccc2C(=O)O)c2nc(N3CCOCC3)cc(=O)n2c1 [AZD6482] + CS(=O)(=O)N1CCN(Cc2cc3nc(-c4cccc5[nH]ncc45)nc(N4CCOCC4)c3s2)CC1 [Pictilisib] (partner 1 µM)
Outline: as §1

[4] = compound: COc1cc2nc(N3CCCN(C)CC3)nc(NC3CCN(Cc4ccccc4)CC3)c2cc1OC + Cc1nc(NC(=O)N2CCC[C@H]2C(N)=O)sc1-c1ccnc(C(C)(C)C(F)(F)F)c1 [Alpelisib] (partner 2 µM)
Outline: as §1

Cell Line | relative viability ([1]; first compound 0.08 µM) | relative viability ([1]; first compound 0.253 µM) | relative viability ([1]; first compound 0.8 µM) | relative viability ([1]; first compound 8 µM) | relative viability ([2]; first compound 0.6325 µM) | relative viability ([2]; first compound 6.325 µM) | relative viability ([1]; first compound 2.53 µM) | relative viability ([2]; first compound 0.2 µM) | relative viability ([2]; first compound 2 µM) | relative viability ([3]; first compound 0.08 µM) | relative viability ([3]; first compound 0.253 µM) | relative viability ([3]; first compound 0.8 µM) | relative viability ([3]; first compound 2.53 µM) | relative viability ([3]; first compound 8 µM) | relative viability ([4]; first compound 0.2 µM) | relative viability ([4]; first compound 0.6325 µM) | relative viability ([4]; first compound 2 µM) | relative viability ([4]; first compound 6.325 µM)
NCI-H1648 | 0.892 | 0.625 | 0.816 | 0.671 | 0.293 | 0.272 |  |  |  |  |  |  |  |  |  |  |  | 
SK-MES-1 | 0.84 | 0.974 | 0.876 | 0.532 | 0.304 | 0.106 | 0.394 | 0.319 | 0.295 | 0.285 | 0.34 | 0.33 | 0.202 | 0.35 | 1.08 | 0.887 | 0.975 | 0.827
HCC-366 | 0.173 | 0.202 | 0.204 | 0.275 | 0.404 | 0.409 | 0.209 | 0.373 | 0.396 | 0.115 | 0.106 | 0.214 | 0.127 | 0.129 | 0.519 | 0.558 | 0.468 | 0.283
201T | 0.31 | 0.295 | 0.27 | 0.342 | 0.361 | 0.365 | 0.314 | 0.375 | 0.354 | 0.612 | 0.672 | 0.66 | 0.506 | 0.619 | 1.01 | 0.998 | 1.05 | 1.01
HCC-827 | 0.251 | 0.254 | 0.245 | 0.238 | 0.448 | 0.446 | 0.245 | 0.478 | 0.437 | 0.899 | 0.814 | 0.848 | 0.636 | 0.628 | 0.906 | 0.922 | 0.952 | 0.891
NCI-H647 | 0.154 | 0.161 | 0.191 | 0.158 | 0.457 | 0.213 | 0.16 | 0.336 | 0.348 | 0.358 |  | 0.38 | 0.249 | 0.408 | 1.12 | 1.13 | 1.18 | 0.448
NCI-H2023 | 0.254 | 0.226 | 0.204 | 0.176 | 0.337 | 0.0878 | 0.175 | 0.379 | 0.4 | 0.194 | 0.227 | 0.233 | 0.132 | 0.24 | 0.661 | 0.634 | 0.714 | 0.331
NCI-H520 | 0.501 | 0.409 | 0.394 | 0.222 | 0.259 | 0.148 | 0.144 | 0.168 | 0.25 | 0.254 | 0.197 | 0.27 |  | 0.316 | 0.947 | 0.98 | 0.867 | 0.452
RERF-LC-KJ | 0.461 | 0.459 | 0.465 | 0.449 | 1.11 | 0.909 | 0.439 | 0.982 | 1.13 | 0.492 | 0.488 | 0.502 | 0.535 | 0.7 | 0.905 | 0.878 | 0.902 | 0.661
A-427 | 0.92 | 0.967 | 0.963 | 0.995 | 0.503 | 0.485 | 0.686 | 0.533 | 0.521 | 0.655 | 0.697 | 0.735 | 0.601 | 0.682 | 1.12 | 0.98 | 0.997 | 1.08
NCI-H441 | 0.261 | 0.267 | 0.276 | 0.282 | 0.219 | 0.207 |  | 0.191 | 0.236 | 0.453 | 0.389 | 0.408 | 0.32 | 0.431 | 0.919 |  | 0.601 | 0.655
NCI-H1703 |  |  |  |  |  |  |  |  |  | 0.245 | 0.239 | 0.233 | 0.204 | 0.191 | 0.313 | 0.265 | 0.402 | 0.353
NCI-H1792 | 0.63 | 0.632 | 0.641 | 0.417 | 0.654 | 0.685 | 0.303 | 0.637 | 0.609 | 0.224 | 0.237 | 0.288 | 0.191 | 0.213 | 0.725 | 0.74 | 0.717 | 0.737
Calu-6 |  |  |  |  |  |  |  |  |  | 0.823 | 0.85 | 0.846 | 0.673 | 0.937 | 0.884 | 0.926 | 1 | 0.976
SK-LU-1 |  | 0.906 | 1.04 | 0.714 | 0.353 | 0.375 | 0.738 | 0.409 | 0.394 |  | 0.535 | 0.622 | 0.461 | 0.448 | 1.21 | 0.977 | 1.04 | 0.577
PC-3 [JPC-3] | 1.07 | 1.05 | 1.04 | 0.533 | 0.591 | 0.468 | 0.634 | 0.542 | 0.578 | 0.601 | 0.743 | 0.739 | 0.652 | 0.681 | 1.06 | 0.97 | 1.09 | 0.986
EMC-BAC-2 | 0.415 | 0.45 | 0.438 | 0.413 | 0.472 | 0.546 | 0.414 | 0.525 | 0.517 | 0.487 | 0.51 | 0.505 | 0.374 | 0.555 | 0.765 | 0.69 | 0.784 | 0.77
LK-2 | 0.276 | 0.276 | 0.263 | 0.176 | 0.884 | 0.598 | 0.193 | 0.658 | 0.841 | 0.574 |  | 0.657 | 0.515 | 0.677 | 1.02 | 1.05 | 1.26 | 1.01
NCI-H2126 | 0.683 | 0.677 | 0.692 | 0.434 | 0.325 | 0.328 | 0.411 | 0.373 | 0.367 | 0.446 | 0.513 | 0.494 | 0.368 | 0.483 | 0.83 | 0.734 | 0.761 | 0.717
